Experiment: Spectrophotometric absorption test method (uptake of drug by unloaded resin)
Assay type: physicochemical
Conditions: within 5 hours; 55 ml of 98 mg/l indomethacin in simulated intestinal fluid, 43 mg Cholestyramine USP, 318 nm
Method: It is important that the drug be absorbed by the resin. The following test method is useful in determining drug absorption by the resin. In this illustration of the test method, indomethacin and cholestyramine are used. Equipment was set up as described in Example 1, except that the effluent from the uv cell was directed back to the inlet of the pump to produce a circulation flow. 55 ml of a 98 mg/1 solution of indomethacin in simulated intestinal fluid, prepared as described below, was charged to the filtration cell and the pump and stirrer started. Flow rate was approximately 6 ml/min. Absorbance readings were taken on the uv spectrophotometer at a wavelength of 318nm until a steady baseline was obtained. 43 mg of Cholestyramine USP that had been screened to remove particles <75 microns was then added to the cell. Absorbance readings were then taken at frequent intervals to observe the uptake of indomethacin. The absorbance readings were used to calculate the indomethacin concentration from a suitably determined calibration curve and to calculate the total amount of indomethacin absorbed by the resin. In the case of the indomethacin, 92% was absorbed within 5 hours.
Preparation of simulated intestinal fluid: a solution of 6.8 g/l potassium dihydrogen phosphate in deionized water was prepared and sufficient 0.2 mol/1 sodium hydroxide s added to achieve a pH of 7.5.

COc1ccc2c(c1)c(CC(=O)O)c(C)n2C(=O)c1ccc(Cl)cc1 [indomethacin]
indomethacin absorbed by the resin: 92%

From patent US20020176842A1, “Extended release of active ingredients” (priority 2001, published 2002)
